Results on 3 compounds are retold here after patent US20170215419A1, “ANTHRANILAMIDE SEED TREATMENT COMPOSITIONS AND METHODS OF USE” (priority 2014, published 2017).

Series [1] deals with wireworm. The series is described as follows: Corn yield, stand and runts on fields with wireworm pressure (Tables 5, 6). The series is classed as in vivo. As to conditions: for Yield bu/ac: 250 μg AI/seed.
For series [2], the system named is black cutworms. The series is described as follows: Cutworm mortality and residual control, leaf feeding bioassay on leaves from treated corn seed (Table 3). It is filed as in vivo, Agrotis ipsilon. As to the method:
(§1) Efficacy of chlorantraniliprole against high pressure of black cutworms, and plant stand protection (15 DAP) was tested (FIG. 5). In addition, efficacy of chlorantraniliprole for healthier stand and longer seedling protection against black cutworms (9 DAI) was also tested (FIG. 6). See also Tables 3 and 4 for increased mortality rates of cutworms with chlorantraniliprole alone and in combination with other insecticides. Mortality of 3rd instar black cutworms, which were exposed to corn leaf samples in in-vivo leaf feeding bioassays, was recorded at specific evaluation dates. The leaf samples were collected from treated corn seed according to the treatment in Tables 3-4.
(§2) All treatments included a combination of fungicides (Fludioxonil, Mefenoxam, Azoxystrobin, Thiabendazole). Soil Texture was fine clay loam; insect species: Agrotis ipsilon; infestation: 2, 3rd instar larva/plant; Plot size: 6 rows×20 feet; Seeding rate: 39,000/acre; Experimental design: Randomized Complete Block (RCB); 9 trtms×4 rep.

Series [3] deals with black cutworms. The series is described as follows: Field efficacy against high pressure of black cutworms, plant stand protection (FIG. 5, 6). The series is classed as in vivo, Agrotis ipsilon. As to the method: as §1, §2
For series [4], the system named is wireworms. The series is described as follows: Growth chamber wireworm bioassay on treated corn seed (FIG. 9). The series is classed as in vivo, Melanotus spp. Conditions: 250 to 750 μg AI/seed; corn at V3-V4; vs untreated check. As to the method:
In addition, the efficacy of corn seed treated with chlorantraniliprole to protect seeds and seedlings from soil pests such as wireworms was determined at a growth chamber. A total of 8 repetitions were conducted and the following evaluations were observed:
Evaluations: 1. Emergence; 2. Wireworm damaged plants; 4. Wireworm mortality; 5. Fresh plan weight
Bioassays were conducted in a growth chamber in using field-collected Melanotus spp. wireworms. […] weighted wireworms were individually placed into plastic pots containing filtered field-collected soil and one corn seed for a total of 48 wireworms in 8 pots for each treatment The containers were maintained at 20±2° C., 40 to 70% RH, and a photoperiod of 10:14 (L:D), and were watered daily.
The following seed treatment combinations were used and the results are shown in FIG. 9: Chlorantraniliprole at 250 to 750 μg AI/seed; thiamethoxam (IST) at 250 μg AI/seed; and clothianidin (+Bacillus firmus 1-1582) at 1250 μg AI/seed.

Series [5] relates to black cutworms. The series is described as follows: Black cutworm mortality after 10 DAI, leaf feeding bioassay (Table 4). The series is classed as in vivo, Agrotis ipsilon. As to the method: as §1
Series [6] deals with wireworm. The series is described as follows: Field efficacy against wireworm and impact on corn yield, vigor and stand (FIG. 1, 2). The series is classed as in vivo. As to the method:
Efficacy of chlorantraniliprole against wireworm (30 DAP) and impact on corn yield were tested (FIG. 1) based on data from 4 Locations. Unless indicated otherwise in this Example or in any other Example herein, “BASE ST” included Fludioxonil, Mefenoxam, Azoxystrobin, Thiabendazole (fungicides), Thiamethoxam (insecticide) and biological amendments (B. subtilis, and B. simplex). The BASE ST may also include other fungicides.
Efficacy of chlorantraniliprole was also tested against high wireworm pressure locations for plant vigor and yield and stand protection (FIG. 2 A-B). “FST” indicates fungicide seed treatment.
The chlorantraniliprole was applied at a concentration of 0.25 mg ai/seed and other commercially available insecticides and/or fungicides were applied at the labeled rates. […] In an embodiment, the BASE ST included thiamethoxam at 250 μg AI/seed.

Series [7] deals with white grub. The series is described as follows: Efficacy against white grub and impact on corn yield (FIG. 3, 4). The series is classed as in vivo, Japanese Beetle larvae. Conditions: added to BASE ST, compared to BASE ST alone.
Setting [8] is: Table 6, fields with constant wireworm pressure, N = 7.
[9] abbreviates: seed treatment 250 μg AI/seed, 3rd instar black cutworms on corn leaf samples.
The mark [10] stands for this setting: seed treatment 250 μg AI/seed, residual control.
Where [11] appears, read: seed treatment 500 μg AI/seed (clothianidin 500).
[12] abbreviates: added to BASE ST, compared to FST alone, high wireworm pressure.

With `CNC(=O)c1cc(Cl)cc(C)c1NC(=O)c1cc(Br)nn1-c1ncccc1Cl` [Chlorantraniliprole, 3-bromo-N-[4-chloro-2-methyl-6-[(methylamino)carbonyl]phenyl]-1-(3-chloro-2-pyridinyl)-1H-pyrazole-5-carboxamide], the Yield bu/ac came to 172.3 bu/ac in series [1] (Table 5, fields with wireworm pressure) and 164.3 bu/ac in series [1] (setting [8]). Moreover, the corn grain yield entry in series [1] (locations with wireworm infestations, chlorantraniliprole 250 to 750 μg AI/seed alone or with thiamethoxam 250 μg AI/seed) is reported as “increased corn grain yield”. In addition, the “Mortality % 12 DAP” value in series [2] (setting [9]), in series [2] (setting [11]) and in series [2] (seed treatment 750 μg AI/seed) was 100.00% in each case. Further, the “Mortality % 39 DAP” value in series [2] (setting [10]) worked out at 32.95%; in series [2] (setting [11]) it was 31.25%; in series [2] (seed treatment 750 μg AI/seed), 21.11%. In addition, the “stand and seedling protection against black cutworms” value in series [3] (9 DAI (FIG. 6)) was “increased healthier stand and longer seedling protection”. For the same compound, in series [3] (compared to FST alone, black cutworm), the “reduction in plant mortality” value was found to be 62%. Besides, the “black cutworm damage to corn plants” value in series [3] (high black cutworm pressure, 15 DAP) is recorded as “significantly reduced”. Also, the fresh plant weight entry in series [4] is reported as “significantly higher plant weight than the untreated check/control”. Moreover, the Mortality % in series [5] (seed treatment 250 μg AI/seed), in series [5] (setting [11]) and in series [5] (seed treatment 750 μg AI/seed) was 100.00% each time. The corn yield entry in series [6] (0.25 mg ai/seed added to BASE ST, compared to BASE ST alone) was “yield increase”. Moreover, the “wireworm count per 10 plants” value in series [6] (0.25 mg ai/seed added to BASE ST, compared to BASE ST alone, 30 DAP, 4 locations) is listed as “significantly reduced”. For the same compound, the plant vigor result in series [6] (setting [12]) was “significantly increased”. Further, the stand protection result in series [6] (setting [12]) was “protected stand”. Moreover, the yield entry in series [6] (added to BASE ST, compared to FST alone, high wireworm pressure (FIG. 2A)) is recorded as “increased significantly”. Moreover, the grain yield result in series [7] was “increased grain yield”. In addition, the “white grub count per 10 plants” value in series [7] (30 DAP, 3 locations) is “significantly reduced”.
Take `CN/C(=N\[N+](=O)[O-])NCc1cnc(Cl)s1` [Clothianidin, reference compound]: in series [2] (setting [11]), the “Mortality % 12 DAP” value stood at 97.92% and the “Mortality % 39 DAP” value is recorded as 25.00%. For the same compound, the Mortality % in series [5] (setting [11]) is 93.75%.
Compound `CN1COCN(Cc2cnc(Cl)s2)/C1=N\[N+](=O)[O-]` [Thiamethoxam, reference compound] had a Yield bu/ac in series [1] (setting [8]) of 173.3 bu/ac. In addition, the runts in series [1] (seedling stage, wireworms, each active at 250 μg AI/seed) turned out to be 8.8%. Also, the “Mortality % 12 DAP” value in series [2] (setting [9]) was 95.83%. In addition, the “Mortality % 39 DAP” value in series [2] (setting [10]) amounted to 31.25%. Besides, the Mortality % in series [5] (seed treatment 250 μg AI/seed) worked out at 22.92%.
